Test results from ChEMBL document CHEMBL1687756 (Antimicrob Agents Chemother, 2010).

Legend:
[1] = Ratio of drug level in spleen to plasma in male Beagle dog at 400 mg/kg administered intramuscularly after 3 months; assay type: ADME, organism-based, Canis lupus familiaris; parameters: dose 400 mg/kg, route intramuscular; conditions: im
[2] = Drug level in male Beagle dog thymus at 400 mg/kg, sc after 1 month; assay type: ADME, organism-based, Canis lupus familiaris; parameters: dose 400 mg/kg, route subcutaneous; conditions: read-out: Drug uptake
[3] = Ratio of drug level in lymph node popliteal to plasma in Beagle dog at 5 mg/kg, sc after 3 months; assay type: ADME, organism-based, Canis lupus familiaris; parameters: dose 5 mg/kg, route subcutaneous
[4] = Drug level in Beagle dog lymph node mandibular at 5 mg/kg, sc after 3 months; assay type: ADME, organism-based, Canis lupus familiaris; parameters: dose 5 mg/kg, route subcutaneous; conditions: read-out: Drug uptake
[5] = Ratio of drug level in spleen to plasma in male Beagle dog at 200 mg/kg administered intramuscularly after 1 month; assay type: ADME, organism-based, Canis lupus familiaris; parameters: dose 200 mg/kg, route intramuscular; conditions: im
[6] = Ratio of drug level in spleen to plasma in female Beagle dog at 200 mg/kg administered intramuscularly after 3 months; assay type: ADME, organism-based, Canis lupus familiaris; parameters: dose 200 mg/kg, route intramuscular; conditions: im
Canis familiaris [7] = assay: Toxicity in Beagle dog assessed as irritation at 20 mg/kg, sc after 3 months; assay type: organism-based, Canis lupus familiaris; parameters: dose 20 mg/kg, route subcutaneous; conditions: in vivo, 2191.5 h
[8] = Drug level in Beagle dog skin at injected site at 5 mg/kg, sc after 3 months; assay type: ADME, organism-based, Canis lupus familiaris, Zone of skin; parameters: dose 5 mg/kg, route subcutaneous; conditions: read-out: Drug uptake
Plasma = assay: (§1) Plasma concentration in Beagle dog at 5 mg/kg administered intramuscularly after 6 months; assay type: ADME, organism-based, Canis lupus familiaris; parameters: dose 5 mg/kg, route intramuscular; conditions: in vivo, im, 4383 h, BLD = below limit of detection
[9] = as §1; assay type: ADME, organism-based, Canis lupus familiaris; parameters: dose 5 mg/kg, route intramuscular; conditions: im
[10] = Drug level in Beagle dog liver at 5 mg/kg, sc after 3 months; assay type: ADME, organism-based, Canis lupus familiaris; parameters: dose 5 mg/kg, route subcutaneous; conditions: read-out: Drug uptake
[11] = Drug level in Beagle dog lymph node mandibular at 5 mg/kg administered intramuscularly after 6 months; assay type: ADME, organism-based, Canis lupus familiaris; parameters: dose 5 mg/kg, route intramuscular; conditions: im, read-out: Drug uptake
[12] = Plasma concentration in male Beagle dog at 400 mg/kg administered intramuscularly after 1 month; assay type: ADME, organism-based, Canis lupus familiaris; parameters: dose 400 mg/kg, route intramuscular; conditions: im
[13] = Drug level in Beagle dog lymph node iliac at 5 mg/kg administered intramuscularly after 6 months; assay type: ADME, organism-based, Canis lupus familiaris; parameters: dose 5 mg/kg, route intramuscular; conditions: im, read-out: Drug uptake
[14] = Plasma concentration in female Beagle dog at 400 mg/kg administered intramuscularly after 3 months; assay type: ADME, organism-based, Canis lupus familiaris; parameters: dose 400 mg/kg, route intramuscular; conditions: im
[15] = Plasma concentration in Beagle dog at 5 mg/kg, sc after 6 months; assay type: ADME, organism-based, Canis lupus familiaris; parameters: dose 5 mg/kg, route subcutaneous
[16] = Ratio of drug level in lymph node popliteal to plasma in Beagle dog at 5 mg/kg, sc after 1 month; assay type: ADME, organism-based, Canis lupus familiaris; parameters: dose 5 mg/kg, route subcutaneous
[17] = Tmax in Beagle dog at 5 mg/kg administered intramuscularly after 184 days; assay type: ADME, organism-based, Canis lupus familiaris; parameters: dose 5 mg/kg, route intramuscular; conditions: in vivo, im
[18] = Tmax in female dog at 200 mg administered intramuscularly after 85 days; conditions: in vivo, im
[19] = AUC (0 to last) in male dog at 200 mg, sc after 85 days; conditions: plasma
[20] = Ratio of drug level in spleen to plasma in male Beagle dog at 400 mg/kg administered intramuscularly after 1 month; assay type: ADME, organism-based, Canis lupus familiaris; parameters: dose 400 mg/kg, route intramuscular; conditions: im
[21] = Drug level in Beagle dog spleen at 5 mg/kg, sc after 3 months; assay type: ADME, organism-based, Canis lupus familiaris; parameters: dose 5 mg/kg, route subcutaneous; conditions: read-out: Drug uptake
[22] = Ratio of drug level in spleen to plasma in male Beagle dog at 200 mg/kg administered intramuscularly after 3 months; assay type: ADME, organism-based, Canis lupus familiaris; parameters: dose 200 mg/kg, route intramuscular; conditions: im
[23] = Drug level in female Beagle dog spleen at 400 mg/kg, sc after 1 month; assay type: ADME, organism-based, Canis lupus familiaris; parameters: dose 400 mg/kg, route subcutaneous; conditions: read-out: Drug uptake
Canis familiaris [24] = assay: Toxicity in Beagle dog assessed as abscess formation at 20 mg/kg administered intramuscularly after 3 months; assay type: organism-based, Canis lupus familiaris; parameters: dose 20 mg/kg, route intramuscular; conditions: in vivo, im, 2191.5 h
[25] = Drug level in male Beagle dog spleen at 400 mg/kg, sc after 3 months; assay type: ADME, organism-based, Canis lupus familiaris; parameters: dose 400 mg/kg, route subcutaneous; conditions: read-out: Drug uptake
[26] = AUC (0 to last) in Beagle dog at 5 mg/kg administered intramuscularly after 176 days; assay type: ADME, organism-based, Canis lupus familiaris; parameters: dose 5 mg/kg, route intramuscular, time 0 - last; conditions: plasma, im
[27] = Drug level in Beagle dog lymph node popliteal at 5 mg/kg, sc after 1 month; assay type: ADME, organism-based, Canis lupus familiaris; parameters: dose 5 mg/kg, route subcutaneous; conditions: read-out: Drug uptake
[28] = Drug level in male Beagle dog spleen at 200 mg/kg administered intramuscularly after 3 months; assay type: ADME, organism-based, Canis lupus familiaris; parameters: dose 200 mg/kg, route intramuscular; conditions: im, read-out: Drug uptake
[29] = Ratio of drug level in thymus to plasma in Beagle dog at 5 mg/kg, sc after 6 months; assay type: ADME, organism-based, Canis lupus familiaris; parameters: dose 5 mg/kg, route subcutaneous
[30] = Ratio of drug level in lymph node mandibular to plasma in Beagle dog at 5 mg/kg, sc after 6 months; assay type: ADME, organism-based, Canis lupus familiaris; parameters: dose 5 mg/kg, route subcutaneous
[31] = Cmax in female dog at 400 mg administered intramuscularly after 29 days; conditions: in vivo, im
[32] = Plasma concentration in female Beagle dog at 400 mg/kg, sc after 1 month; assay type: ADME, organism-based, Canis lupus familiaris; parameters: dose 400 mg/kg, route subcutaneous; conditions: read-out: Drug uptake
Canis familiaris [33] = assay: Toxicity in Beagle dog assessed as untoward effects at 20 mg/kg, sc; assay type: organism-based, Canis lupus familiaris; parameters: dose 20 mg/kg, route subcutaneous; conditions: in vivo
[34] = Plasma concentration in male Beagle dog at 200 mg/kg administered intramuscularly after 3 months; assay type: ADME, organism-based, Canis lupus familiaris; parameters: dose 200 mg/kg, route intramuscular; conditions: im
[35] = Drug level in male Beagle dog spleen at 400 mg/kg administered intramuscularly after 1 month; assay type: ADME, organism-based, Canis lupus familiaris; parameters: dose 400 mg/kg, route intramuscular; conditions: im, read-out: Drug uptake
[36] = Drug level in Beagle dog liver at 5 mg/kg administered intramuscularly after 3 months; assay type: ADME, organism-based, Canis lupus familiaris; parameters: dose 5 mg/kg, route intramuscular; conditions: im, read-out: Drug uptake
[37] = Drug level in Beagle dog thymus at 5 mg/kg, sc after 3 months; assay type: ADME, organism-based, Canis lupus familiaris; parameters: dose 5 mg/kg, route subcutaneous; conditions: read-out: Drug uptake
[38] = AUC (0 to last) in female dog at 200 mg, sc after 29 days; conditions: plasma
[39] = Drug level in female Beagle dog spleen at 200 mg/kg, sc after 3 months; assay type: ADME, organism-based, Canis lupus familiaris; parameters: dose 200 mg/kg, route subcutaneous; conditions: read-out: Drug uptake
[40] = AUC (0 to last) in male dog at 200 mg, sc after 29 days; conditions: plasma
[41] = Drug level in Beagle dog muscle at non-injected site at 5 mg/kg, sc after 3 months; assay type: ADME, organism-based, Canis lupus familiaris, Muscle tissue; parameters: dose 5 mg/kg, route subcutaneous; conditions: read-out: Drug uptake
[42] = Plasma concentration in female Beagle dog at 200 mg/kg administered intramuscularly after 3 months; assay type: ADME, organism-based, Canis lupus familiaris; parameters: dose 200 mg/kg, route intramuscular; conditions: im
[43] = Drug level in Beagle dog lymph node mandibular at 5 mg/kg, sc after 6 months; assay type: ADME, organism-based, Canis lupus familiaris; parameters: dose 5 mg/kg, route subcutaneous; conditions: read-out: Drug uptake
[44] = Tmax in male dog at 400 mg administered intramuscularly after 29 days; conditions: in vivo, im
[45] = Cmax in Beagle dog at 5 mg/kg, sc after 176 days; assay type: ADME, organism-based, Canis lupus familiaris; parameters: dose 5 mg/kg, route subcutaneous; conditions: in vivo
[46] = AUC (0 to infinity) in Sprague-Dawley rat at 1.25 mg/kg, iv after 2 days; assay type: ADME, organism-based; parameters: time infinity, dose 1.25 mg/kg, route intravenous; conditions: plasma
Canis familiaris [47] = assay: Toxicity in Beagle dog assessed as white deposits at 20 mg/kg administered intramuscularly after 3 months; assay type: organism-based, Canis lupus familiaris; parameters: dose 20 mg/kg, route intramuscular; conditions: in vivo, im, 2191.5 h
[48] = Drug level in male Beagle dog spleen at 400 mg/kg administered intramuscularly after 3 months; assay type: ADME, organism-based, Canis lupus familiaris; parameters: dose 400 mg/kg, route intramuscular; conditions: im, read-out: Drug uptake
[49] = Ratio of drug level in thymus to plasma in female Beagle dog at 400 mg/kg, sc after 1 month; assay type: ADME, organism-based, Canis lupus familiaris; parameters: dose 400 mg/kg, route subcutaneous
[50] = Drug level in female Beagle dog spleen at 200 mg/kg administered intramuscularly after 1 month; assay type: ADME, organism-based, Canis lupus familiaris; parameters: dose 200 mg/kg, route intramuscular; conditions: im, read-out: Drug uptake
[51] = Drug level in male Beagle dog thymus at 200 mg/kg, sc after 1 month; assay type: ADME, organism-based, Canis lupus familiaris; parameters: dose 200 mg/kg, route subcutaneous; conditions: read-out: Drug uptake
[52] = Ratio of drug level in spleen to plasma in Beagle dog at 5 mg/kg, sc after 6 months; assay type: ADME, organism-based, Canis lupus familiaris; parameters: dose 5 mg/kg, route subcutaneous
[53] = Ratio of drug level in thymus to plasma in male Beagle dog at 400 mg/kg administered intramuscularly after 3 months; assay type: ADME, organism-based, Canis lupus familiaris; parameters: dose 400 mg/kg, route intramuscular; conditions: im
[54] = Drug level in Beagle dog thymus at 5 mg/kg administered intramuscularly after 6 months; assay type: ADME, organism-based, Canis lupus familiaris; parameters: dose 5 mg/kg, route intramuscular; conditions: im, read-out: Drug uptake
[55] = Ratio of drug level in lymph node axillar to plasma in Beagle dog at 5 mg/kg, sc after 3 months; assay type: ADME, organism-based, Canis lupus familiaris; parameters: dose 5 mg/kg, route subcutaneous; conditions: axillary lymph node/plasma

- Kp at 2191.5 h [1]: 2.9
- concentration at 730.5 h [2]: 606 ng/g
- Kp at 2191.5 h [3]: 8.2
- concentration at 2191.5 h [4]: 13.1 ng/g
- Kp at 730.5 h [5]: 1.8
- Kp at 2191.5 h [6]: 2.2
- concentration at 2191.5 h [8]: 223000 ng/g
- Cp (Plasma): BLD
- concentration at 4383 h [9]: < 1 ng/mL
- concentration at 2191.5 h [10]: 45.6 ng/g
- concentration at 4383 h [11]: 6.9 ng/g
- concentration at 730.5 h [12]: 158 ng/mL
- concentration at 4383 h [13]: 10.7 ng/g
- concentration at 2191.5 h [14]: 20.3 ng/mL
- concentration at 4383 h [15]: 1.3 ng/mL
- Kp at 730.5 h [16]: 4.1
- Tmax [17]: 24 h
- Tmax [18]: 0.55 h
- AUC(0-t) at 2040 h [19]: 97800 ng·h/mL
- Kp at 730.5 h [20]: 2.2
- concentration at 2191.5 h [21]: 9.7 ng/g
- Kp at 2191.5 h [22]: 2.7
- concentration at 730.5 h [23]: 285 ng/g
- concentration at 2191.5 h [25]: 11.3 ng/g
- AUC(0-t) at 4224 h [26]: 23200 ng·h/mL
- concentration at 730.5 h [27]: 68.2 ng/g
- concentration at 2191.5 h [28]: 23.8 ng/g
- Kp at 4383 h [29]: 16
- Kp at 4383 h [30]: 6.1
- Cmax [31]: 6190 ng/mL
- concentration at 730.5 h [32]: 227 ng/g
- concentration at 2191.5 h [34]: 9.2 ng/mL
- concentration at 730.5 h [35]: 347 ng/g
- concentration at 2191.5 h [36]: 20.8 ng/g
- concentration at 2191.5 h [37]: 43.6 ng/g
- AUC(0-t) at 696 h [38]: 70600 ng·h/mL
- concentration at 2191.5 h [39]: 49.5 ng/g
- AUC(0-t) at 696 h [40]: 56800 ng·h/mL
- concentration at 2191.5 h [41]: 18.5 ng/g
- concentration at 2191.5 h [42]: 10.1 ng/mL
- concentration at 4383 h [43]: 7.8 ng/g
- Tmax [44]: 17 h
- Cmax [45]: 31.4 ng/mL
- AUC(0-inf) [46]: 1230 ng·h/mL
- concentration at 2191.5 h [48]: 63.5 ng/g
- Kp at 730.5 h [49]: 5
- concentration at 730.5 h [50]: 142 ng/g
- concentration at 730.5 h [51]: 576 ng/g
- Kp at 4383 h [52]: 5.5
- Kp at 2191.5 h [53]: 3.9
- concentration at 4383 h [54]: 7.2 ng/g
- Kp at 2191.5 h [55]: 6.8
Compound: Cc1cc(/C=C/C#N)cc(C)c1Nc1ccnc(Nc2ccc(C#N)cc2)n1 [RILPIVIRINE]
- Activity (Canis familiaris [7]): Non-toxic
- Activity (Canis familiaris [24]): Non-toxic
- Activity (Canis familiaris [33]): Non-toxic
- Activity (Canis familiaris [47]): Non-toxic
